Experimental data: publication PMC3302575 (Biochemistry, 2011)

What was measured:
Assay in all cases: copurification, absorption spectroscopy of native protein
Type in all cases: binding
zebrafish CRY4 (ZfCRY4) = molecular target: T1, zebrafish CRY4 (ZfCRY4) (Danio rerio, UniProt Q9I912); conditions: Sf21 medium with or without F0; pH 7.5
T1 sequence (Q9I912 1-558): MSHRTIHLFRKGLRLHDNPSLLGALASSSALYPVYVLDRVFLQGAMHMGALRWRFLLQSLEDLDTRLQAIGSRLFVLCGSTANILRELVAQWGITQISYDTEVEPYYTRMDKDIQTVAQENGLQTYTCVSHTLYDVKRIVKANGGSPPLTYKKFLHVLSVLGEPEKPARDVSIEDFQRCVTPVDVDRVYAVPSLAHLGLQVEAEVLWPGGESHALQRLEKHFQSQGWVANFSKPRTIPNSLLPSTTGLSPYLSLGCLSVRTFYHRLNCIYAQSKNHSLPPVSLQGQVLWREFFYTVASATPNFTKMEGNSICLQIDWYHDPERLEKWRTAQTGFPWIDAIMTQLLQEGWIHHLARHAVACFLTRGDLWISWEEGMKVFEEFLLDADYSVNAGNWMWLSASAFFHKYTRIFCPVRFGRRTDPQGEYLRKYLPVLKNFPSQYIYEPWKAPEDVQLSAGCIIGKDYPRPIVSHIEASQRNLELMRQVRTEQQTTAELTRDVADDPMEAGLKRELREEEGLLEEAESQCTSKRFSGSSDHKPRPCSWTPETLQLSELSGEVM

[1] = molecular target: Drosophila cryptochrome (DmCRY) (Drosophila melanogaster, UniProt O77059); conditions: Sf21 medium with or without F0; pH 7.5
[2] = molecular target: A. thaliana CRY2 (AtCRY2) (Arabidopsis thaliana, UniProt Q96524); conditions: Sf21 medium with or without F0; pH 7.4
A. thaliana CRY2 (AtCRY2), sequence (Q96524 whole entry): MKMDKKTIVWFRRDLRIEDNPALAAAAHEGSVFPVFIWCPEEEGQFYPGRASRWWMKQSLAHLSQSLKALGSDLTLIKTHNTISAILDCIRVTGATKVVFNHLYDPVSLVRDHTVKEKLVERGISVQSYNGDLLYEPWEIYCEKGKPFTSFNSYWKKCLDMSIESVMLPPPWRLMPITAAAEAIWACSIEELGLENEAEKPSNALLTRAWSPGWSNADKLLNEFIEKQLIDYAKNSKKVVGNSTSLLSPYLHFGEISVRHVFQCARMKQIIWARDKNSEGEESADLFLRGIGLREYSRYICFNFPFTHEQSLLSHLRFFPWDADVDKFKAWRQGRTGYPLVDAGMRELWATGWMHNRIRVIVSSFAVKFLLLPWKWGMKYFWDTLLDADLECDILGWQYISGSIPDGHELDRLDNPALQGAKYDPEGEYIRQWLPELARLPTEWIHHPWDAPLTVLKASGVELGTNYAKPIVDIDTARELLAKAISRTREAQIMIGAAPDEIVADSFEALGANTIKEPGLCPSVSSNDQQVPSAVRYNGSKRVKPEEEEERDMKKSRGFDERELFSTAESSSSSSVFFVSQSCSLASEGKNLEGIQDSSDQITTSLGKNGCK

Drosophila cryptochrome (DmCRY), sequence (O77059 whole entry): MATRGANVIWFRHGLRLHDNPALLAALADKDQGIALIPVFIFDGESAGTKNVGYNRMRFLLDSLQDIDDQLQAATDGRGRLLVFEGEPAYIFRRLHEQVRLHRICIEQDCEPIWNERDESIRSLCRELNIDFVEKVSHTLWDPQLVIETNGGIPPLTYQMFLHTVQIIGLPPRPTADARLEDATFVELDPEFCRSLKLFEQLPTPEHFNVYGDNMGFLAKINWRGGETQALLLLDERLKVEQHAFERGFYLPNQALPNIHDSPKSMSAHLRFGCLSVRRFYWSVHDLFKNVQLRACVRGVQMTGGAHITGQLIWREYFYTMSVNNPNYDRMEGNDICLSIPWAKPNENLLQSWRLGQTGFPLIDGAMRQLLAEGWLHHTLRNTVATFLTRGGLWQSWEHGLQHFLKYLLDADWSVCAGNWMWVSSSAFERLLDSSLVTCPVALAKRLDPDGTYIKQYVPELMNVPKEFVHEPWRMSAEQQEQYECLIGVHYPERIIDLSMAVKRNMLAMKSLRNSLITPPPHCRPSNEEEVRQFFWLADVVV

Cc1cc2nc3c(=O)[nH]c(=O)nc-3n(C[C@H](O)[C@H](O)[C@H](O)COP(=O)(O)OP(=O)(O)OC[C@H]3O[C@@H](n4cnc5c(N)ncnc54)[C@H](O)[C@@H]3O)c2cc1C [FAD]
copurification, absorption spectroscopy of native protein (zebrafish CRY4 (ZfCRY4)): both AtCRY2 (A,B) and ZfCRY4 (C,D), expressed with and without F0, contained FAD | copurification, absorption spectroscopy of native protein [1]: exhibited only the spectra of enzyme-bound FAD (Fig. 4E,F) | copurification, absorption spectroscopy of native protein [2]: both AtCRY2 (A,B) and ZfCRY4 (C,D), expressed with and without F0, contained FAD
